Measured values published in ChEMBL document CHEMBL4813918, “From off-to on-target: New BRAF-inhibitor-template-derived compounds selectively targeting mitogen activated protein kinase kinase 4 (MKK4)” (Eur J Med Chem, 2021).

Legend:
[1] = target: Mitogen-activated protein kinase kinase kinase kinase 5 (Homo sapiens) (UniProt Q9Y4K4); assay: Binding affinity to wild type partial length human MAP4K5 (M1 to P297) expressed in Bacterial expression system assessed as residual activity at 100 nM measured by Kinomescan assay relative to control
[2] = target: T1, Dual specificity mitogen-activated protein kinase kinase 7 (Homo sapiens) (UniProt O14733); assay: Binding affinity to wild type full length human MKK7 (M1 to R419 residues) expressed in mammalian expression system assessed as residual activity at 100 nM measured by Kinomescan assay
T1 sequence (whole entry): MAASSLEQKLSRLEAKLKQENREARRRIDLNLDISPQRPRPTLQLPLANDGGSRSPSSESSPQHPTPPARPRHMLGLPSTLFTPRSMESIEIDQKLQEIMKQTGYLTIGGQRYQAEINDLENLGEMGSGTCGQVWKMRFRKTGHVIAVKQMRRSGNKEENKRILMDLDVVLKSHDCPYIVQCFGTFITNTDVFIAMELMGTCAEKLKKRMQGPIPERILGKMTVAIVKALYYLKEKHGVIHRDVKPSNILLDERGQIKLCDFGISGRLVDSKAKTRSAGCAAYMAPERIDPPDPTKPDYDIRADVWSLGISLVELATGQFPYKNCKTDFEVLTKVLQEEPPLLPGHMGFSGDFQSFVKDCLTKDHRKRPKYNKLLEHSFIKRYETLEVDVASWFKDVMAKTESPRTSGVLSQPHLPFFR

[3] = target: Mitogen-activated protein kinase kinase kinase 20 (Homo sapiens) (UniProt Q9NYL2); assay: Binding affinity to wild type partial length human ZAK (M1 to L331) expressed in bacterial expression system assessed as residual activity at 100 nM measured by Kinomescan assay
Sequence of Mitogen-activated protein kinase kinase kinase 20 (Homo sapiens) (Q9NYL2 2-800 limits assumed): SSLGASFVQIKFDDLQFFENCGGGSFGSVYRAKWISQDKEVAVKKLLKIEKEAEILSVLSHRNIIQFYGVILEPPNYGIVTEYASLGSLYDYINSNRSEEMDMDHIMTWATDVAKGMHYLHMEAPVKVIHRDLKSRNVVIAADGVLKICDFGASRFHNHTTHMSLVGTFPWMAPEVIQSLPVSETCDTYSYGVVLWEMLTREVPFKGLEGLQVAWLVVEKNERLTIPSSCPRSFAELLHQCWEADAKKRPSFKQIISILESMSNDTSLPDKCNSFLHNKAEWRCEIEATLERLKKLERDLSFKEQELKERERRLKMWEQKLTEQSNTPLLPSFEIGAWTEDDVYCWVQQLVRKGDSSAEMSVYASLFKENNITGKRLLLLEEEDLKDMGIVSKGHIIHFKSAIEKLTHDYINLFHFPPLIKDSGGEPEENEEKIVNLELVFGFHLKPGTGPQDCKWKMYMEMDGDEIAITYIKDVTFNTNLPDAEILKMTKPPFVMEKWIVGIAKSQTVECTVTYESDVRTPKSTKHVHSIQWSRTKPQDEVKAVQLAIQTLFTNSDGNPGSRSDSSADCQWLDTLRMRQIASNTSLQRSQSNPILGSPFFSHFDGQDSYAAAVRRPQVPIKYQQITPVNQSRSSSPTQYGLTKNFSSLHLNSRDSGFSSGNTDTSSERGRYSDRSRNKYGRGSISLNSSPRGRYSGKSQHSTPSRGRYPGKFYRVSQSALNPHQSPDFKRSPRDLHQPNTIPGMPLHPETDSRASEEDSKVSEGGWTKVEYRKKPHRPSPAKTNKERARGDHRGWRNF

Sequence of Mitogen-activated protein kinase kinase kinase kinase 5 (Homo sapiens) (Q9Y4K4 whole entry, looked up, the tested form may be a part): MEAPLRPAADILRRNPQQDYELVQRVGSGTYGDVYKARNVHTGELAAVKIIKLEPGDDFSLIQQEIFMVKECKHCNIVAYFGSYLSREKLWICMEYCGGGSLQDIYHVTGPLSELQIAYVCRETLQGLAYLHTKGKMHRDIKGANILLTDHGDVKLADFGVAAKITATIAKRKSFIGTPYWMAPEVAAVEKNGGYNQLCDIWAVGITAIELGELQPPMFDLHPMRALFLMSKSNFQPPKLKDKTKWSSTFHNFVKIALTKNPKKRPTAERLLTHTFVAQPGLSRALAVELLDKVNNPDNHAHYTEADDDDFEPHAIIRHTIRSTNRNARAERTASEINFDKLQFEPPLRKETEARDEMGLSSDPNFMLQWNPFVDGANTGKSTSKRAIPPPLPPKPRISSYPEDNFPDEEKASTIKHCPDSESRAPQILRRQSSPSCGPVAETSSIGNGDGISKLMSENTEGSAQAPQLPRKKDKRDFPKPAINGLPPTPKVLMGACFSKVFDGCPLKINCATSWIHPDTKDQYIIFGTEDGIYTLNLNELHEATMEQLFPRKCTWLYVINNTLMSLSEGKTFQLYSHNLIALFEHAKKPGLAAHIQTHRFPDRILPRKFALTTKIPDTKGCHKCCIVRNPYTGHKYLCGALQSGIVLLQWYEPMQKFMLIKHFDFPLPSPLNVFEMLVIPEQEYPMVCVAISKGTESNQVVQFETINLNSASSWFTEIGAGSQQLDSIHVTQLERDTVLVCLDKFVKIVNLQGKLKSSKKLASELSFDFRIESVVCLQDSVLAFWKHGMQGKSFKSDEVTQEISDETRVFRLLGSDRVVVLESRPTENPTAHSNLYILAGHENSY

Compound | Activity [1] | Activity [2] | Activity [3]
O=C(c1cccc(NS(=O)(=O)Cc2ccccc2)c1F)c1c[nH]c2ncc(-c3cc4c(cc3Cl)OCO4)cc12 | 66% | 100% | 80%
CCCS(=O)(=O)Nc1ccc(F)c(C(=O)c2c[nH]c3ncc(-c4ccc(F)cc4)cc23)c1F | 67% | 100% | 0.9%
O=C(c1c(F)ccc(NS(=O)(=O)CCc2ccccc2)c1F)c1c[nH]c2ncc(-c3ccc(Cl)cc3)cc12 | 100% | 97% | 53%
O=C(c1cccc(NS(=O)(=O)Cc2ccccc2)c1F)c1c[nH]c2ncc(-c3ccc(Cl)cc3)cc12 | 72% | 97% | 66%
CCCS(=O)(=O)Nc1cccc(C(=O)c2c[nH]c3ncc(-c4ccc(Cl)cc4)cc23)c1C | 40% | 91% | –
CCCCCS(=O)(=O)Nc1ccc(F)c(C(=O)c2c[nH]c3ncc(-c4ccc(Cl)cc4)cc23)c1F | 98% | 89% | 55%
COc1ccc(-c2cnc3[nH]cc(C(=O)c4cccc(NS(=O)(=O)Cc5ccccc5)c4F)c3c2)c(Cl)c1 | 79% | 100% | 87%
CCCS(=O)(=O)Nc1ccc(F)c(C(=O)c2c[nH]c3ncc(-c4ccc(OC)cc4Cl)cc23)c1F | 100% | 100% | 18%
O=C(c1c(F)ccc(NS(=O)(=O)Cc2ccc(F)cc2)c1F)c1c[nH]c2ncc(-c3ccc(Cl)cc3)cc12 | – | 100% | 61%
CCCS(=O)(=O)Nc1ccc(F)c(C(=O)c2c[nH]c3ncc(-c4ccc(OC)cc4C)cc23)c1F | – | 97% | 13%
Oc1ccc(-c2ncnc3[nH]c4ccc(O)cc4c23)cc1 | 92% | 100% | 84%
CCCS(=O)(=O)Nc1cccc(C(=O)c2c[nH]c3ncc(-c4ccc(Cl)cc4)cc23)c1 | 44% | 100% | –
CCCS(=O)(=O)Nc1ccc(F)c(C(=O)c2c[nH]c3ncc(-c4ccccc4C)cc23)c1F | 67% | 100% | 6.9%
CCCS(=O)(=O)Nc1ccc(F)c(C(=O)c2c[nH]c3ncc(-c4cccc(F)c4)cc23)c1F | 45% | 90% | 0.8%
CCCS(=O)(=O)Nc1ccc(F)c(C(=O)c2c[nH]c3ncc(-c4cnccn4)cc23)c1F | 75% | 83% | 11%
CCCS(=O)(=O)Nc1ccc(F)c(C(=O)c2c[nH]c3ncc(-c4ccc(OC)cc4F)cc23)c1F | – | 85% | 6%
O=C(c1c(F)ccc(NS(=O)(=O)Cc2ccccc2F)c1F)c1c[nH]c2ncc(-c3ccc(Cl)cc3)cc12 | – | 97% | 23%
CCCS(=O)(=O)Nc1ccc(F)c(C(=O)c2c[nH]c3ncc(-c4cccc(OC)c4)cc23)c1F | 18% | 100% | 23%
Cc1cccc(CS(=O)(=O)Nc2ccc(F)c(C(=O)c3c[nH]c4ncc(-c5ccc(Cl)cc5)cc34)c2F)c1 | – | 100% | 64%
Cc1ccc(CS(=O)(=O)Nc2ccc(F)c(C(=O)c3c[nH]c4ncc(-c5ccc(Cl)cc5)cc34)c2F)cc1 | – | 90% | 87%
CCCS(=O)(=O)Nc1ccc(F)c(C(=O)c2c[nH]c3ncc(-c4ccccc4F)cc23)c1F | – | 86% | 2.9%
CCCS(=O)(=O)Nc1ccc(F)c(C(=O)c2c[nH]c3ncc(-c4cccc(Cl)c4)cc23)c1F | – | 85% | 2.2%
CCCS(=O)(=O)Nc1ccc(F)c(C(=O)c2c[nH]c3ncc(-c4ccc(OC)cc4)cc23)c1F | 38% | 70% | –
CCCS(=O)(=O)Nc1ccc(F)c(C(=O)c2c[nH]c3ncc(-c4ccc(F)cc4F)cc23)c1F | – | 93% | 5.9%
O=C(c1c(F)ccc(NS(=O)(=O)Cc2cccc(F)c2)c1F)c1c[nH]c2ncc(-c3ccc(Cl)cc3)cc12 | – | 99% | 36%
